Assay results: PMC7739374 (ACS chemical biology, 2020)
Where a SMILES comes first, the peptide text is derived from it. [ ]: non-standard residue; d: D form. β3hI = CC[C@H](C)[C@H](N)CC(=O)O; β3hE = N[C@@H](CCC(=O)O)CC(=O)O; β3hA = C[C@H](N)CC(=O)O

Experiments:
[1] = Tryptic digestion, HPLC-based proteolytic stability assay; assay type: in vitro ADME
[2] = tested on: recombinant H-Ras; conditions: within range of full-length Sos; cited from earlier work
[3] = tested on: Ras activation and ERK signaling; conditions: cited from earlier work
[4] = tested on: trypsin; test: Tryptic digestion, HPLC-based proteolytic stability assay; assay type: in vitro ADME
[5] = tested on: proteinase K; assay type: in vitro ADME
[6] = tested on: H358 (K-Ras G12C) lung cancer cells; test: MTT cell viability; assay type: cell-based; conditions: 72 hours

| SMILES | half-life ([1]; trypsin) [h] | affinity for recombinant H-Ras [2] | modulation of Ras activation and ERK signaling [3] | half-life ([1]; isolated enzyme trypsin) [h] | fold increase in half-life, tryptic digestion [4] | fold increase in half-life with proteinase K [5] [fold] | effect on cell viability, H358 [6] |
| --- | --- | --- | --- | --- | --- | --- | --- |
| CC[C@H](C)[C@H](NC(=O)CN1C/C=C/CCC(=O)N[C@@H](Cc2ccccc2)C(=O)N[C@@H](CCC(=O)O)C1=O)C(=O)N[C@@H](Cc1ccc(O)cc1)C(=O)N[C@@H](CCCNC(=N)N)C(=O)N[C@@H](CC(C)C)C(=O)N[C@@H](CCC(=O)O)C(=O)N[C@@H](CC(C)C)C(=O)N[C@@H](CC(C)C)C(=O)N[C@@H](CCCCN)C(=O)N[C@@H](C)C(=O)N[C@@H](CCC(=O)O)C(=O)N[C@@H](CCC(=O)O)C(=O)N[C@@H](C)C(=O)N[C@@H](CC(N)=O)C(N)=O [HBSSOS] | 3.1 | micromolar affinity | concentration-dependent manner |  |  |  |  |
| CC[C@H](C)[C@@H](CC(=O)N[C@@H](Cc1ccc(O)cc1)C(=O)N[C@@H](CCCNC(=N)N)C(=O)N[C@@H](CC(C)C)C(=O)N[C@@H](CCC(=O)O)CC(=O)N[C@@H](CC(C)C)C(=O)N[C@@H](CC(C)C)C(=O)N[C@@H](CCCCN)C(=O)N[C@@H](C)CC(=O)N[C@@H](CCC(=O)O)C(=O)N[C@@H](CCC(=O)O)C(=O)N[C@@H](C)C(=O)N[C@@H](CC(N)=O)C(N)=O)NC(=O)CN1C/C=C/CCCC(=O)N[C@@H](Cc2ccccc2)C(=O)N[C@@H](CCC(=O)O)C1=O [α3βHBSSOS] |  |  |  | 17.6 | ~ 6 fold | 360 | impacts viability of H358 cells at higher concentrations |
| CC[C@H](C)[C@@H](CC(=O)N[C@@H](Cc1ccc(O)cc1)C(=O)N[C@@H](CCCNC(=N)N)C(=O)N[C@@H](CC(C)C)C(=O)N[C@@H](CCC(=O)O)CC(=O)N[C@@H](CC(C)C)C(=O)N[C@@H](CC(C)C)C(=O)N[C@@H](CCCCN)C(=O)N[C@@H](C)CC(=O)N[C@@H](CCC(=O)O)C(=O)N[C@@H](CCC(=O)O)C(=O)N[C@@H](C)C(=O)N[C@@H](CC(N)=O)C(N)=O)NC(=O)CNC(=O)[C@H](CCC(=O)O)NC(=O)[C@H](Cc1ccccc1)NC(C)=O [α3βUNCSOS] (Ac-FEG[β3hI]YRL[β3hE]LLK[β3hA]EEAN-NH2; N-terminus and C-terminus assumed) |  |  |  | 13.6 | 8.5 fold |  |  |
| CC[C@H](C)[C@H](NC(=O)CNC(=O)[C@H](CCC(=O)O)NC(=O)[C@H](Cc1ccccc1)NC(C)=O)C(=O)N[C@@H](Cc1ccc(O)cc1)C(=O)N[C@@H](CCCNC(=N)N)C(=O)N[C@@H](CC(C)C)C(=O)N[C@@H](CCC(=O)O)C(=O)N[C@@H](CC(C)C)C(=O)N[C@@H](CC(C)C)C(=O)N[C@@H](CCCCN)C(=O)N[C@@H](C)C(=O)N[C@@H](CCC(=O)O)C(=O)N[C@@H](CCC(=O)O)C(=O)N[C@@H](C)C(=O)N[C@@H](CC(N)=O)C(N)=O [αUNCSOS] (Ac-FEGIYRLELLKAEEAN-NH2; N-terminus and C-terminus assumed) | 1.6 |  |  |  |  |  |  |
